From patent US20140228366A1, “HETEROARYL-SUBSTITUTED PYRAZOLOPYRIDINES AND USE THEREOF AS SOLUBLE GUANYLATE CYCLASE STIMULATORS” (BAYER INTELLECTUAL PROPERTY GMBH, priority 2011, published 2014)

Tests used:
rabbit aorta rings = test: Vasorelaxant effect in vitro (phenylephrine-contracted aorta rings); details: Oryctolagus cuniculus, phenylephrine contraction, concentration reducing control contraction by 50%
Procedure: Rabbits are stunned by a blow to the neck and exsanguinated. The aorta is removed, freed from adhering tissue and divided into rings of a width of 1.5 mm. The rings are placed individually under an initial tension in 5 ml organ baths with Krebs-Henseleit solution which is at 37° C., is gassed with carbogen and has the following composition (in each case mM): sodium chloride: 119; potassium chloride: 4.8; calcium chloride dihydrate: 1; magnesium sulphate heptahydrate: 1.4; potassium dihydrogenphosphate: 1.2; sodium bicarbonate: 25; glucose: 10. The contractile force is determined with Statham UC2 cells, amplified and digitalized using A/D transducers (DAS-1802 HC, Keithley Instruments Munich), and recorded in parallel on linear recorders. To produce a contraction, phenylephrine is added to the bath cumulatively in increasing concentration. After several control cycles, the substance to be investigated is added in each further run in increasing dosage in each case, and the height of the contraction achieved is compared with the height of the contraction reached in the last preceding run. This is used to calculate the concentration needed to reduce the magnitude of the control value by 50% (IC50 value). The standard administration volume is 5 μl; the DMSO content in the bath solution corresponds to 0.1%.

[1] = biological target: T1, recombinant guanylate cyclase reporter cell line (Rattus norvegicus, UniProt P19686+P20595); test: Effect on a recombinant guanylate cyclase reporter cell line; type: cell-based
T1 construct: expressed in transfected cells; host or cells: recombinant reporter cell line
T1 sequence (P19686 1-690): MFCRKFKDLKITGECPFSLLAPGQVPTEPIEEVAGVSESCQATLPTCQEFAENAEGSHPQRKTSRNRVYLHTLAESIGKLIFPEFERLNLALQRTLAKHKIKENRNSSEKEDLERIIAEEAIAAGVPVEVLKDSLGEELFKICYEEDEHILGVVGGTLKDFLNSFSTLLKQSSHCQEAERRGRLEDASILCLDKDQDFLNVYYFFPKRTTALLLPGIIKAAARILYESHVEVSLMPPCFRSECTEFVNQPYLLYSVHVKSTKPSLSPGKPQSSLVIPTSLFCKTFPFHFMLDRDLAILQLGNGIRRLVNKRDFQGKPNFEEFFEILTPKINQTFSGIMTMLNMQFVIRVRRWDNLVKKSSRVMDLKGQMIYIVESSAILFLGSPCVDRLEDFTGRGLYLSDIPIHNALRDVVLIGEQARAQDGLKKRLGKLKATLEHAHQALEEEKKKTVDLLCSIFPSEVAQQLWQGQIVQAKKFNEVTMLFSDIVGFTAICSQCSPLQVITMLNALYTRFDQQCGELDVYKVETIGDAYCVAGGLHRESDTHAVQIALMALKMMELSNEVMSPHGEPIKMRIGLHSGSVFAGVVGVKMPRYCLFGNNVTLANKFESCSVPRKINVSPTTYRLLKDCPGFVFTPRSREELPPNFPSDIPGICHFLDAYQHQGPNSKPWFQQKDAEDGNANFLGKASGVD
T1 sequence (P20595 1-619): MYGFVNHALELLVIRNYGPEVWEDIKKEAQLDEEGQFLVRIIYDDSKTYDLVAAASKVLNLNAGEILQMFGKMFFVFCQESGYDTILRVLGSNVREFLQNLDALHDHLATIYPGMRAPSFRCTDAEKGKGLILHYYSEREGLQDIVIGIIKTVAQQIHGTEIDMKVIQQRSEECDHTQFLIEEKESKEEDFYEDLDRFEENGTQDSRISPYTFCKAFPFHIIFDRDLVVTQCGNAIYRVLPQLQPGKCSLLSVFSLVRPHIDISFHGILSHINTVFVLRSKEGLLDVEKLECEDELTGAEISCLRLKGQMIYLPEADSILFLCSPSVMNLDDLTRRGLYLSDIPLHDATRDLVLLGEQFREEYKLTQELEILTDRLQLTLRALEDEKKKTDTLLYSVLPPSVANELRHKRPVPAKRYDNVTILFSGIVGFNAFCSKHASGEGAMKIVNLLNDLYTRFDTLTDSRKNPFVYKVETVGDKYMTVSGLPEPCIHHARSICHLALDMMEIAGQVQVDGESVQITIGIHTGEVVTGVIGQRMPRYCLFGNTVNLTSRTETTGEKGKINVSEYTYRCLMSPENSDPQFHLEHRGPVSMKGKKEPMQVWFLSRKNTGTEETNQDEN
Procedure: The cellular activity of the compounds according to the invention is determined using a recombinant guanylate cyclase reporter cell line, as described in F. Wunder et al., Anal. Biochem. 339, 104-112 (2005).

[2] = Pharmacokinetic parameters following intravenous administration in rats; type: in vivo, male Wistar rats; details: intravenous administration of 0.3 mg/kg; for MRT / half-life: male, Wistar, rat, plasma; for half-life: terminal half life
Procedure: The pharmacokinetic parameters of the compounds of the formula (I) according to the invention are determined in male CD-1 mice, male Wistar rats and/or female beagles. The administration volume is 5 ml/kg for mice, 5 ml/kg for rats and 0.5 ml/kg for dogs. Intravenous administration is via a formulation of species-specific plasma/DMSO (99/1) in the case of mice and rats and via water/PEG400/ethanol (50/40/10 or 30/60/10) in the case of dogs. The removal of blood from rats is simplified by inserting a silicone catheter into the right Vena jugularis externa prior to substance administration. The surgical intervention takes place one day prior to the experiment with isofluran anesthesia and administration of an analgetic (atropine/rimadyl (3/1) 0.1 ml s.c.). Substance administration is as i.v. bolus in the case of mice, as i.v. bolus or via a 15-minute infusion in the case of rats and via a 15-minute infusion in the case of dogs. Removal of blood is after 0.033, 0.083, 0.17, 0.5, 1, 2, 3, 4, 6, 7 and 24 hours in the case of mice and, after a 15-minute infusion, after 0.083, 0.25, 0.28, 0.33, 0.42, 0.75, 1, 2, 3, 4, 6, 7 (or 8 in the case of Example 3) and 24 hours in the case of dogs and rats and after an i.v. bolus administration, after 0.033, 0.083, 0.17, 0.5, 1, 2, 3, 4, 6, 7 and 24 hours in the case of rats. For all species, oral administration of the dissolved substance via gavage is carried out based on a water/PEG400/ethanol formulation (50/40/10). Here, the removal of blood from rats and dogs is after 0.083, 0.17, 0.5, 0.75, 1, 2, 3, 4, 6, 7 and 24 hours. The blood is removed into heparinized tubes. The blood plasma is then obtained by centrifugation; if required, it can be stored at −20° C. until further processing.
An internal standard (ZK 228859) is added to the samples of the compounds of the formula (I) according to the invention, calibration samples and QCs, and the protein is precipitated using excess acetonitrile. After addition of an ammonium acetate buffer (0.01 M, pH 6.8) and subsequent vortexing, the mixture is centrifuged at 1000 g and the supernatant is examined by LC-MS/MS (API 4000, AB Sciex). Chromatographic separation is carried out on an Agilent 1100-HPLC. The injection volume is 10 μl. The separation column used is a Phenomenex Luna 5μ C8(2) 100A 50×2 mm, adjusted to a temperature of 40° C. A binary mobile phase gradient at 500 μl/min is used (A: 0.01M ammonium acetate buffer pH 6.8, B: 0.1% formic acid in acetonitrile): 0 min (90% A), 1 min (90% A), 3 min (10% A), 4 min (10% A), 4.50 min (90% A), 6 min (90% A). The temperature of the Turbo V ion source is 500° C. (Example 2), 400° C. (Example 3) or 450° C. (Example 6). The following MS instrument parameters are used: curtain gas 15 units (Examples 2 and 3) or 10 units (Example 6), ion spray voltage 4.8 kV, gas 1 45 units (Example 2) or 50 units (Examples 3 and 6), gas 2 35 units (Examples 2 and 6) or 40 units (Example 3), CAD gas 4 units (Examples 2 and 6) or 8 units (Example 3). The substances are quantified by peak heights or areas using extracted ion chromatograms of specific MRM experiments.
The plasma concentration/time plots determined are used to calculate the pharmacokinetic parameters such as AUC, Cmax, t112 (terminal half life), MRT (mean residence time) and CL (clearance), using the validated pharmacokinetic calculation program KinEx (Vers. 3).
Since the substance quantification is performed in plasma, it is necessary to determine the blood/plasma distribution of the substance in order to be able to adjust the pharmacokinetic parameters correspondingly. For this purpose, a defined amount of substance is incubated in heparinized whole blood of the species in question in a rocking roller mixer for 20 min. After centrifugation at 1000 g, the plasma concentration is measured (see above) and determined by calculating the quotient of the Cblood/Cplasma values.

Structure (SMILES): CC1(C)C(=O)Nc2nc(-c3nn(Cc4ncccc4F)c4ncc(F)cc34)ncc21 [Example 6, 2-{5-Fluoro-1-[(3-fluoropyridin-2-yl)methyl]-1H-pyrazolo[3,4-b]pyridin-3-yl}-5,5-dimethyl-5,7-dihydro-6H-pyrrolo[2,3-d]pyrimidin-6-one]
- IC50 (rabbit aorta rings): 82 nM
- MEC (minimum effective concentration) [1]: 0.03 µM
- AUCnorm [2]: 3.5 kg·h/L
- CLblood [2]: 0.37 L/h/kg
- MRT [2]: 5.6 h
- half-life [2]: 264 min

Structure (SMILES): CC1(C)C(=O)Nc2nc(-c3nn(Cc4ncccc4F)c4ncc(F)cc34)nc(N)c21 [Example 3, 4-Amino-2-{5-fluoro-1-[(3-fluoropyridin-2-yl)methyl]-1H-pyrazolo[3,4-b]pyridin-3-yl}-5,5-dimethyl-5,7-dihydro-6H-pyrrolo[2,3-d]pyrimidin-6-one]
- IC50 (rabbit aorta rings): 34 nM
- MEC (minimum effective concentration) [1]: 0.3 µM
- AUCnorm [2]: 0.93 kg·h/L
- CLblood [2]: 0.93 L/h/kg
- MRT [2]: 1.3 h
- half-life [2]: 60 min

Structure (SMILES): CC1(C)C(=O)Nc2nc(-c3nn(Cc4ncccc4F)c4ncc(F)cc34)nnc21 [Example 2, 3-{5-Fluoro-1-[(3-fluoropyridin-2-yl)methyl]-1H-pyrazolo[3,4-b]pyridin-3-yl}-7,7-dimethyl-5,7-dihydro-6H-pyrrolo[2,3-e][1,2,4]triazin-6-one]
- IC50 (rabbit aorta rings): 234 nM
- MEC (minimum effective concentration) [1]: 1 µM
- AUCnorm [2]: 13 kg·h/L
- CLblood [2]: 0.13 L/h/kg
- MRT [2]: 7.9 h
- half-life [2]: 366 min
